# What was measured:
# [1] = molecular target: T1, STAT6 (endogenous, HiBiT-tagged) in HeLa LgBiT clone 4.14 cells (Homo sapiens, UniProt P42226); assay: STAT6 Degrader Assay (HiBiT based, HeLa LgBiT clone 4.14 cells, luminescence, DC50); assay type: cell-based; conditions: geometric mean; for DC50: DC50 provided for test compounds with >80% Emax, read-out: STAT6 degradation DC50; for Emax: Emax provided for test compounds with <80% Emax (and 2c15), read-out: STAT6 degradation Emax
# T1 construct: These cells express endogenous STAT6; host or cells: HeLa LgBiT clone 4.14
# T1 sequence (P42226 1-847): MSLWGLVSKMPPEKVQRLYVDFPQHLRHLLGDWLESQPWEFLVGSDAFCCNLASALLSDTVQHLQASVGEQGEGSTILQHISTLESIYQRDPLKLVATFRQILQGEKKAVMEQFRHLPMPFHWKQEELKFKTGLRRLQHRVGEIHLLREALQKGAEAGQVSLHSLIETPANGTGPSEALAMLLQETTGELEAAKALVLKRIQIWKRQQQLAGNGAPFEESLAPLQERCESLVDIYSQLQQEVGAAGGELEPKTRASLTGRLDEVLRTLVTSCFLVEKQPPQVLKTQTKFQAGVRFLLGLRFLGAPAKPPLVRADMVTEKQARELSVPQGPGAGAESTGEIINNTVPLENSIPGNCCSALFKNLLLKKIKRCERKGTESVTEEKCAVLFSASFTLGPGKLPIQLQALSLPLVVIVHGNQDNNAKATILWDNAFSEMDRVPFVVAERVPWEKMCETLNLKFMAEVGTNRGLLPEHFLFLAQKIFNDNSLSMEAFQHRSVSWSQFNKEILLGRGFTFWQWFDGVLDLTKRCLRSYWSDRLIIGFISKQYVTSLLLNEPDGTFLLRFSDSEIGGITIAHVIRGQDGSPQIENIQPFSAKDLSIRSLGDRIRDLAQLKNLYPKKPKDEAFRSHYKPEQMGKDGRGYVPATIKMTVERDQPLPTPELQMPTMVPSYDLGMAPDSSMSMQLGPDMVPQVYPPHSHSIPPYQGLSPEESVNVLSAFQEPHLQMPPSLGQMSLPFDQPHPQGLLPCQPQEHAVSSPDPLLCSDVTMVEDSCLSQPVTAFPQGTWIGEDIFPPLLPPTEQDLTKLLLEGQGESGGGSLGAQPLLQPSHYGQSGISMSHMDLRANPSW
# Summary of the method: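 Remaining STAT6 is read as NanoBiT luminescence after 0.5 h with Nano-Glo, in HeLa LgBiT clone 4.14 cells expressing endogenous HiBiT-tagged STAT6, following 4-24 h compound incubation at 37 °C. Full degradation is set by 50 µM terfenadine, which kills the cells; degradation plotted against log compound concentration.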
# [2] = test system: Eotaxin-3 (CCL26) release in human whole blood stimulated with IL-4; assay: Human Whole Blood Eotaxin-3 Assay (IL-4 stimulated, inhibition of eotaxin-3 release); assay type: cell-based; conditions: Homo sapiens, EC50 provided for test compounds with >80% Emax, geometric mean across assay runs and batches
# Method: This was a human whole blood assay using recombinant human Interleukin 4 to stimulate the blood and measuring the ability of the test compounds to inhibit eotaxin-3 release. The biological activities of the test compounds have been tested in human whole blood stimulated with IL-4 measuring Eotaxin-3 release. The test compounds were added to 384 well clear flat-bottom plate in a 4-fold serial dilution in triplicates using a liquid handler. Human whole blood stabilized in lithium-heparin tubes was added in a volume of 65 uL per well, resulting in a final DMSO concentration of 0.5%. The plate is incubated for 2 h at 37° C. under 5% CO2/95% air. Subsequently, 5 μL of recombinant human IL-4 (R&D Systems, cat #204-ILB) was added to the wells to a final concentration of 400 pM. The plate was incubated for 48 h at 37° C. under 5% CO2/95% air. The plate was spun down for 10 minutes at 500×g and 20 uL supernatant was harvested and transferred to a 384 well v-bottom plate using a liquid handler and stored at −20° C. until further analysis. 10 uL supernatant was used to measure the level of Eotaxin-3 (CCL26) using Human Eotaxin-3 MSD kit from Mesocsale (Cat #K251UEK-4). The assay was performed according to the manufacture instructions.
# The data from the human whole blood eotaxin-3 assay is shown below for Examples 2q11, 2110, and 2c49 (where the effect in % is plotted against the test concentration in M on a log-scale).
Compound,DC50 [1],EC50 [2],Emax [1]
"C[C@@H](c1cc2c(-c3ccc(N)nc3C#N)ccnc2n1C)N1CCC(c2ccc(C(=O)N3CCC(CN4CCN(c5ccc(NC6CCC(=O)NC6=O)cc5F)CC4)CC3)cc2)CC1 (stereo partly drawn) [Example 2c22, 6-amino-3-(2-((1S)-1-(4-(4-(4-((4-(4-((2,6-dioxopiperidin-3-yl)amino)-2-fluorophenyl)-piperazin-1-yl)methyl)piperidine-1-carbonyl)phenyl)piperidin-1-yl)ethyl)-1-methyl-1H-pyrrolo[2,3-b]pyridin-4-yl) picolinonitrile]",28.2 nM,153 nM,
"C[C@@H](c1cc2c(-c3cnc(N)c(F)c3)ccnc2n1C)N1CCC(c2ccc(C(=O)N3CCC(CN4CCN(c5ccc(NC6CCC(=O)NC6=O)cc5F)CC4)CC3)cc2)CC1 (stereo partly drawn) [Example 2c24, 3-((4-(4-((1-(4-(1-((S)-1-(4-(6-amino-5-fluoropyridin-3-yl)-1-methyl-1H-pyrrolo[2,3-b]pyridin-2-yl)ethyl)piperidin-4-yl)benzoyl)piperidin-4-yl)methyl)piperazin-1-yl)-3-fluorophenyl)-amino)piperidine-2,6-dione]",44.7 nM,792 nM,
"C[C@@H](c1cc2c(-c3ccc(NCCO)nc3)ccnc2n1C)N1CCC(c2ccc(C(=O)N3CCC(CN4CCN(c5ccc(NC6CCC(=O)NC6=O)cc5F)CC4)CC3)cc2)CC1 (stereo partly drawn) [Example 2c26, 3-((3-fluoro-4-(4-((1-(4-(1-((S)-1-(4-(6-((2-hydroxyethyl)amino)pyridin-3-yl)-1-methyl-1H-pyrrolo[2,3-b]pyridin-2-yl)ethyl)piperidin-4-yl)benzoyl)piperidin-4-yl)methyl)piperazin-1-yl)phenyl)-amino)piperidine-2,6-dione]",,188 nM,60 to 70%
"C[C@@H](c1cc2c(-c3ccc(N)nn3)ccnc2n1C)N1CCC(c2ccc(C(=O)N3CCC(CN4CCN(c5ccc(NC6CCC(=O)NC6=O)cc5F)CC4)CC3)cc2)CC1 (stereo partly drawn) [Example 2c27, 3-((4-(4-((1-(4-(1-((S)-1-(4-(6-aminopyridazin-3-yl)-1-methyl-1H-pyrrolo[2,3-b]pyridin-2-yl)ethyl)piperidin-4-yl)benzoyl)piperidin-4-yl)methyl)piperazin-1-yl)-3-fluorophenyl)amino)piperidine-2,6-dione]",,169 nM,70 to 80%
"C[C@@H](c1cc2c(-c3ncc(N)cc3F)ccnc2n1C)N1CCC(c2ccc(C(=O)N3CCC(CN4CCN(c5ccc(NC6CCC(=O)NC6=O)cc5F)CC4)CC3)cc2)CC1 (stereo partly drawn) [Example 2c30, 3-((4-(4-((1-(4-(1-((S)-1-(4-(5-amino-3-fluoropyridin-2-yl)-1-methyl-1H-pyrrolo[2,3-b]pyridin-2-yl)ethyl)piperidin-4-yl)benzoyl)piperidin-4-yl)methyl)piperazin-1-yl)-3-fluorophenyl)-amino)piperidine-2,6-dione]",,507 nM,30 to 40%

# Compounds with a lower EC50 [2], results first:
DC50 [1],EC50 [2],Emax [1],Compound
9.6 nM,49.2 nM,,"C[C@@H](c1cc2c(-c3ccc(N)nc3)ccnc2n1C)N1CCC(c2ccc(C(=O)N3CCC(F)(CN4CCN(c5ccc(NC6CCC(=O)NC6=O)cc5F)CC4)CC3)cc2)CC1 (stereo partly drawn) [Example 2c23, 3-((4-(4-((1-(4-(1-((S)-1-(4-(6-aminopyridin-3-yl)-1-methyl-1H-pyrrolo[2,3-b]pyridin-2-yl)ethyl)-piperidin-4-yl)benzoyl)-4-fluoropiperidin-4-yl)methyl)piperazin-1-yl)-3-fluorophenyl)amino)-piperidine-2,6-dione]"
,95.3 nM,70 to 80%,"C[C@@H](c1cc2c(-c3ccc4[nH]c(=O)n(C)c4c3)ccnc2n1C)N1CCC(c2ccc(C(=O)N3CCC(CN4CCN(c5ccc(NC6CCC(=O)NC6=O)cc5F)CC4)CC3)cc2)CC1 (stereo partly drawn) [Example 2c28, 3-((3-fluoro-4-(4-((1-(4-(1-((S)-1-(1-methyl-4-(3-methyl-2-oxo-2,3-dihydro-1H-benzo[d]imidazol-5-yl)-1H-pyrrolo[2,3-b]pyridin-2-yl)ethyl)piperidin-4-yl)benzoyl)piperidin-4-yl)methyl)piperazin-1-yl)phenyl)amino)piperidine-2,6-dione]"
16.5 nM,67.9 nM,,"COc1nc(N)ccc1-c1ccnc2c1cc([C@H](C)N1CCC(c3ccc(C(=O)N4CCC(CN5CCN(c6ccc(NC7CCC(=O)NC7=O)cc6F)CC5)CC4)cc3)CC1)n2C (stereo partly drawn) [Example 2c32, 3-((4-(4-((1-(4-(1-((S)-1-(4-(6-amino-2-methoxypyridin-3-yl)-1-methyl-1H-pyrrolo[2,3-b]pyridin-2-yl)ethyl)piperidin-4-yl)benzoyl)piperidin-4-yl)methyl)piperazin-1-yl)-3-fluorophenyl)amino)-piperidine-2,6-dione]"
22.5 nM,136 nM,,"C[C@@H](c1cc2c(-c3ccc(N)cn3)ccnc2n1C)N1CCC(c2ccc(C(=O)N3CCC(CN4CCN(c5ccc(NC6CCC(=O)NC6=O)cc5F)CC4)CC3)cc2)CC1 (stereo partly drawn) [Example 2c33, 3-((4-(4-((1-(4-(1-((S)-1-(4-(5-aminopyridin-2-yl)-1-methyl-1H-pyrrolo[2,3-b]pyridin-2-yl)ethyl)-piperidin-4-yl)benzoyl)piperidin-4-yl)methyl)piperazin-1-yl)-3-fluorophenyl)amino)piperidine-2,6-dione]"
21.3 nM,104 nM,,"CNc1ccc(-c2ccnc3c2cc([C@H](C)N2CC=C(c4c(C)cc(C(=O)N5CCC(CN6CCN(c7ncc(NC8CCC(=O)NC8=O)cc7F)C[C@@H]6C)CC5)cc4F)CC2)n3C)cn1 (stereo partly drawn) [Example 2c45, 3-((5-fluoro-6-((S)-4-((1-(3-fluoro-5-methyl-4-(1-((S)-1-(1-methyl-4-(6-(methyl-amino)pyridin-3-yl)-1H-pyrrolo[2,3-b]pyridin-2-yl)ethyl)-1,2,3,6-tetrahydropyridin-4-yl)benzoyl)-piperidin-4-yl)methyl)-3-methylpiperazin-1-yl)pyridin-3-yl)amino)piperidine-2,6-dione]"
21.4 nM,58.4 nM,,"CNc1ccc(-c2ccnc3c2cc([C@H](C)N2CC=C(c4c(C)cc(C(=O)N5CCC(CN6CCN(c7ccc(NC8CCC(=O)NC8=O)c(OC)c7)CC6)CC5)cc4F)CC2)n3C)cn1 (stereo partly drawn) [Example 2c46, 3-((4-(4-((1-(3-fluoro-5-methyl-4-(1-((S)-1-(1-methyl-4-(6-(methylamino)pyridin-3-yl)-1H-pyrrolo[2,3-b]pyridin-2-yl)ethyl)-1,2,3,6-tetrahydropyridin-4-yl)benzoyl)piperidin-4-yl)methyl)piperazin-1-yl)-2-methoxyphenyl)amino)piperidine-2,6-dione]"
3.4 nM,25 nM,,"COCc1nc2cc(-c3ccnc4c3cc([C@H](C)N3CCC(c5ccc(C(=O)N6CCC(CN7CCN(c8ccc(NC9CCC(=O)NC9=O)cc8F)C[C@H]7C)CC6)cc5)CC3)n4C)ccc2[nH]1 (stereo partly drawn) [Example 2f1, 3-((3-fluoro-4-((R)-4-((1-(4-(1-((S)-1-(4-(2-(methoxymethyl)-1H-benzo[d]imidazol-5-yl)-1-methyl-1H-pyrrolo[2,3-b]pyridin-2-yl)ethyl)piperidin-4-yl)benzoyl)piperidin-4-yl)methyl)-3-methylpiperazin-1-yl)phenyl)amino)piperidine-2,6-dione]"
